{"source": "patent US20250019357A1", "about": "“[…] MORPHIC FORMS AND MIXTURES FOR THE TREATMENT OF MENTAL DISORDERS OR MENTAL ENHANCEMENT” (TACTOGEN INC, priority 2021, published 2025)", "key": {"SERT [1]": {"target": "T1, SERT (Rattus norvegicus (Rat), UniProt P31652)", "assay": "In vitro rat synaptosome serotonin release (efflux) assay (Examples 9, 58)", "format": "biochemical", "conditions": "rat synaptosomes", "description": "(§1) FIG. 7B is a graph showing results from an in vitro rat synaptosome serotonin release assay. […] Details and procedural information for this assay are described in Example 9. The x-axis is the log [dose] concentration measured in molar and the y-axis is the [^3H]-labeled 5-HT release measured in percent.\nas §1, with “177” for “7B”, “58.” for “9.”, “x-axis” for “x-axis is”"}, "NET": {"test_system": "NET", "assay": "In vitro rat synaptosome norepinephrine release assay (Examples 9, 58)", "format": "biochemical", "conditions": "rat synaptosomes", "description": "as §1, with “8C” for “7B”, “from” for “from an”, “synaptosome dopamine and norepinephrine release assays. […] Previously presented” for “synaptosome”, “results are included for comparison.” for “release assay.”\n(§2) FIG. 178 is a graph showing results from in vitro rat synaptosome dopamine and norepinephrine release assays. […] Previously presented serotonin results are included for comparison. […] Details and procedural information for this assay are described in Example 58. The x-axis the log [dose] concentration measured in Molar units and the y-axis is the [^3H]-labeled 5-HT release measured in percent of maximum produced by the comparison releaser."}, "5-HT2A receptor": {"target": "5-HT2A receptor (Homo sapiens (Human), UniProt P28223)", "assay": "5-HT2A agonist activity (Example 6)", "format": "cell-based"}, "[2]": {"target": "hTAAR1 (human trace amine-associated receptor) (Homo sapiens (Human), UniProt Q96RJ0)", "assay": "Interaction with hTAAR1", "conditions": "concentrations up to 60 μM"}, "[3]": {"assay": "Marble burying assay (Example 5)", "format": "in vivo", "conditions": "individual enantiomers vs the racemic mixture", "description": "FIG. 2 is a chart showing results from the marble burying assay to measure decreased anxiety and neuroticism resulting from treatment with S-5-MAPB, R/S-5-MAPB, and R-5-MAPB. […] The y-axis gives the compound and dose. Error bars indicate 95% confidence intervals. Details and procedural information for this assay are described in Example 5."}, "Swiss CD1 mice": {"test_system": "Swiss CD1 mice", "assay": "Marble burying test", "format": "in vivo", "conditions": "enantiomers given simultaneously"}, "SERT [4]": {"target": "T1, SERT", "assay": "In vitro rat synaptosome serotonin uptake inhibition assay (Examples 9, 58)", "format": "biochemical", "conditions": "rat synaptosomes", "description": "as §1, with “FIG. 7A” for “FIG. 7B”, “serotonin uptake inhibition” for “serotonin release”, “5-HT reuptake” for “5-HT release”\nFIG. 176 is a graph showing results from an in vitro rat synaptosome serotonin uptake inhibition assay. […] Details and procedural information for this assay are described in Example 58. The x-axis the log [dose] concentration is measured in Molar units and the y-axis is the [^3H]-labeled 5-HT reuptake measured in percent of maximum produced by the comparison releaser."}, "DAT": {"target": "DAT (Rattus norvegicus (Rat), UniProt P23977)", "assay": "In vitro rat synaptosome dopamine release assay (Examples 9, 58)", "format": "biochemical", "conditions": "rat synaptosomes", "description": "as §1, with “8C” for “7B”, “from” for “from an”, “synaptosome dopamine and norepinephrine release assays. […] Previously presented” for “synaptosome”, “results are included for comparison.” for “release assay.”\nas §2"}, "[5]": {"target": "human 5-HT transporter (hSERT) (Homo sapiens (Human), UniProt P31645)", "assay": "Human serotonin transporter  assay ([3H]imipramine radioligand, CHO cells)", "format": "binding", "conditions": "2 nM [3H]imipramine, CHO cells; read-out: SERT IC50", "experimental": "EXAMPLE 8: Human Serotonin Transporter (SERT, SLC6A4) Functional Antagonist Uptake Assay\nBenzofuran derivatives were evaluated for inhibiting the human 5-HT transporter (hSERT) as expressed in CHO cells using an antagonist radioligand assay (Tatsumi, M. et al. (1999), Eur. J. Pharmacol., 368: 277-283). […] Test compounds were assayed in three trials at […], and 0.94868 μM.\nEXAMPLE 57: Human Serotonin Transporter (SERT, SLC6A4) Functional Antagonist Uptake Assay"}, "[6]": {"target": "dopamine transporter (DAT) (Rattus norvegicus (Rat), UniProt P23977)", "assay": "Rat synaptosome DAT release assay ([3H]MPP+)", "conditions": "read-out: dopamine Emax (maximum dopamine increase relative to reference drug)"}, "[7]": {"test_system": "norepinephrine transporter (NET)", "assay": "Rat synaptosome NET release assay ([3H]MPP+)", "conditions": "rat synaptosomes"}, "MDCKII cell line": {"test_system": "MDCKII cell line", "assay": "In vitro absorption assay, MDCKII permeability", "format": "in vitro ADME", "conditions": "pH 7.4/7.4, 10 μM", "experimental": "(§3) The permeability of 10 μM RS-5-MAPB in Caco-2, MDCKII, and MDR1-MDCKII cell line assays was assessed (Table 6). Both the AB and BA directions with and without the addition of a Pgp-specific inhibitor (verapamil), a MRP1 inhibitor (MK571), and an ATP-binding cassette subfamily G member 2 (ABCG2/BCRP) inhibitor (KG143) were measured. Trials were repeated twice, and values averaged."}, "MDR1-MDCKII cell line": {"test_system": "MDR1-MDCKII cell line", "assay": "In vitro absorption assay, MDR1-MDCKII permeability", "format": "in vitro ADME", "experimental": "as §3"}, "Caco-2 cell line": {"test_system": "Caco-2 cell line", "assay": "In vitro absorption assay, Caco-2 permeability", "format": "in vitro ADME", "experimental": "as §3"}, "[8]": {"assay": "Human self-reported effects of non-racemic 5-MAPB (Good, Bad, Open ratings)", "format": "in vivo", "conditions": "one healthy human, 54 mg total 5-MAPB HCl oral in two halves 1 hour apart; session maximum averaged (N=2, 13% S N=1)", "experimental": "The effects of non-racemic 5-MAPB HCl were tested by a healthy human individual at four different ratios of enantiomers plus the racemate as a control: • 54 mg S and 0 mg R (100% S) • 47 mg S and 7 mg R (about 87% S) • 36 mg S and 18 mg R (about 67% S) • 27 mg S and 27 mg R (about 50% S) • 7 mg S and 47 mg R (about 13% S)\nTwo trials were carried out at each ratio, except for 13% S where only one was conducted. Trials were at least 72 h apart.\n5-MAPB HCl was dissolved in 1.5 ml distilled water and consumed in two halves, separated by 1 hour. Starting at 3 hours after administration, tablets of 250 mg ascorbic acid and capsules of 300 mg alpha lipoic acid were taken ad libitum (approximately every hour for a total of 4 administrations).\nMeasurements were made approximately every 2 hours until post 6 hours and the maximum ratings per session were analyzed. Additionally, an index of good drug effects versus emotional openness, calculated as (Open−Good)/(200, the theoretical maximum of Open+ Good), was constructed at each time point and the maximum analyzed. In healthy volunteers, Good Ratings can be considered a predictor of abuse liability. Accordingly, this index can be used as an indicator of the balance of a therapeutic effect (emotional openness) vs abuse liability.\nHistoric data of two trials 50 mg RS-5-MAPB Cl from the same individual were also included in the analysis for comparison.\nTable 24 below indicates maximums for individual measures and for the open vs good index, averaged from all sessions (N=2, except for 13% S-5-MAPB where N=1). Qualitatively, all conditions produced subtle emotional effects, including decreases in negative affect and increases in stability of mood, without sensory distortion."}, "human DAT": {"target": "human DAT (Homo sapiens (Human), UniProt Q01959)", "assay": "hDAT release assay in CHO cells ([3H]dopamine)", "conditions": "read-out: EC50 DAT (Mean ± SEM), CHO cells expressing hDAT"}, "human SERT": {"target": "human SERT (Homo sapiens (Human), UniProt P31645)", "assay": "hSERT release assay in CHO cells ([3H]serotonin)", "conditions": "read-out: EC50 SERT (Mean ± SEM), CHO cells expressing hSERT"}, "[9]": {"conditions": "Caco-2, pH 7.4/7.4 + KO143, 10 μM"}, "[10]": {"conditions": "Caco-2, pH 7.4/7.4 + verapamil, 10 μM"}}, "note": "“Also recorded” adds a separate entry of the source.", "data": [{"smiles": "CCC(Cc1ccc2ccoc2c1)NC", "note": "(racemic) [Pattern 6-MBPB, 6-MBPB]", "values": [{"measurement": "[3H]-labeled 5-HT release", "setting": "SERT [1]", "result": "5-HT releaser"}, {"measurement": "norepinephrine release", "setting": "NET", "result": "only partial releaser of norepinephrine"}, {"measurement": "5-HT2A agonist activity", "setting": "5-HT2A receptor", "result": "poor agonist of 5-HT2A"}, {"measurement": "interactions with hTAAR1", "setting": "[2]", "result": "lacks interactions with hTAAR1"}]}, {"smiles": "CNC(C)Cc1ccc2occc2c1", "note": "(centres unmarked) [Pattern 5-MAPB, 5-MAPB]", "values": [{"measurement": "anxiolytic effect, percent of marbles left unburied versus placebo", "setting": "[3]", "result": "non-additive effects of the two enantiomers"}, {"measurement": "marble burying: interaction between enantiomers", "setting": "Swiss CD1 mice", "result": "strong non-additive interaction"}]}, {"smiles": "CC[C@H](Cc1ccc2occc2c1)NC", "note": "[Pattern R-5-MBPB, R-5-MBPB]", "values": [{"measurement": "[3H]-labeled 5-HT reuptake (serotonin uptake inhibition)", "setting": "SERT [4]", "result": "rapidly increases extracellular serotonin by inhibiting reuptake"}, {"measurement": "[3H]-labeled 5-HT release", "setting": "SERT [1]", "result": "rapidly increases extracellular serotonin by stimulating release"}, {"measurement": "dopamine release / dopamine uptake", "setting": "DAT", "result": "reuptake inhibitors of dopamine; also recorded: dopamine uptake inhibitors"}, {"measurement": "norepinephrine release", "setting": "NET", "result": "partial releasers of norepinephrine; also recorded: rapidly increases extracellular norepinephrine by stimulating release"}, {"measurement": "IC50", "setting": "[5]", "result": "< 950", "unit": "nM"}, {"measurement": "Emax", "setting": "[6]", "result": "~25", "unit": "%"}, {"measurement": "norepinephrine Emax", "setting": "[7]", "result": 58, "unit": "%"}]}, {"smiles": "CC[C@@H](Cc1ccc2occc2c1)NC", "note": "[Pattern S-5-MBPB, S-5-MBPB]", "values": [{"measurement": "[3H]-labeled 5-HT reuptake (serotonin uptake inhibition)", "setting": "SERT [4]", "result": "rapidly increases extracellular serotonin by inhibiting reuptake"}, {"measurement": "[3H]-labeled 5-HT release", "setting": "SERT [1]", "result": "rapidly increases extracellular serotonin by stimulating release"}, {"measurement": "norepinephrine release", "setting": "NET", "result": "rapidly increases extracellular norepinephrine by stimulating release"}, {"measurement": "IC50", "setting": "[5]", "result": "< 950", "unit": "nM"}]}, {"smiles": "CNC(C)Cc1ccc2occc2c1", "note": "(centres unmarked) [RS-5-MAPB]", "values": [{"measurement": "Permeability (Papp) A-B", "setting": "MDCKII cell line", "result": "82.1 10^−6 cm/s"}, {"measurement": "Permeability (Papp) B-A", "setting": "MDCKII cell line", "result": "19.8 10^−6 cm/s"}, {"measurement": "Permeability (Papp) A-B", "setting": "MDR1-MDCKII cell line; pH 7.4/7.4 + verapamil, 10 μM", "result": "42.8 10^−6 cm/s"}, {"measurement": "Permeability (Papp) B-A", "setting": "MDR1-MDCKII cell line; pH 7.4/7.4 + verapamil, 10 μM", "result": "30.4 10^−6 cm/s"}, {"measurement": "Permeability (Papp) A-B", "setting": "MDR1-MDCKII cell line; pH 7.4/7.4, 10 μM", "result": "68.7 10^−6 cm/s"}, {"measurement": "Permeability (Papp) B-A", "setting": "MDR1-MDCKII cell line; pH 7.4/7.4, 10 μM", "result": "20.5 10^−6 cm/s"}, {"measurement": "absorption (conclusion of the permeability assays)", "setting": "Caco-2 cell line; Caco-2, MDCKII and MDR1-MDCKII assays taken together", "result": "well absorbed"}, {"measurement": "Permeability (Papp) A-B", "setting": "Caco-2 cell line; [9]", "result": "75.3 10^−6 cm/s"}, {"measurement": "Permeability (Papp) B-A", "setting": "Caco-2 cell line; [9]", "result": "14 10^−6 cm/s"}, {"measurement": "Permeability (Papp) A-B", "setting": "Caco-2 cell line; [10]", "result": "37.6 10^−6 cm/s"}, {"measurement": "Permeability (Papp) B-A", "setting": "Caco-2 cell line; [10]", "result": "23 10^−6 cm/s"}, {"measurement": "Permeability (Papp) A-B", "setting": "Caco-2 cell line; Caco-2, pH 7.4/7.4, 10 μM", "result": "81 10^−6 cm/s"}, {"measurement": "Permeability (Papp) B-A", "setting": "Caco-2 cell line; Caco-2, pH 7.4/7.4, 10 μM", "result": "29.1 10^−6 cm/s"}, {"measurement": "Bad (bad drug effects), maximum 0-100 rating", "setting": "[8]", "result": 10, "unit": "%"}, {"measurement": "Good (good drug effects), maximum 0-100 rating", "setting": "[8]", "result": 50, "unit": "%"}, {"measurement": "Open (emotional openness), maximum 0-100 rating", "setting": "[8]", "result": 45, "unit": "%"}, {"measurement": "EC50", "setting": "human DAT", "result": "459 ± 48", "unit": "nM"}, {"measurement": "EC50", "setting": "human SERT", "result": "90 ± 16", "unit": "nM"}]}]}
